Assay results: patent US20250250240A1, “PHENAZINE COMPOUND FOR MEASURING BACTERIAL EFFLUX” (priority 2022, published 2025)
Entries after “also recorded” stand apart in the source; their conditions may differ.

Tests used:
AcrAB efflux pump [1] = assay: Bacterial staining (pellet colour) test for AcrAB efflux pump activity; type: cell-based, Escherichia coli; conditions: 1 μg/mL, 15 min
Protocol: The experimental protocol is the same as that described in the previous examples, except for the bacterial strains used. Briefly, compounds 29 and 392 (1 μg/mL) were added to 5 mL of a cell suspension of different E. coli strains (OD=1.5), mixed by tilting and left to stand on the table at room temperature for 15 min. The cells were then centrifuged at 3500 rpm for 10 min and rinsed with potassium phosphate buffer (PBP). The cell pellet was washed only once.

AcrAB efflux pump [2] = target: T1, AcrAB efflux pump (Escherichia coli, UniProt P31224); assay: Pellet colour test for AcrAB efflux pump activity in strains pretreated with CCCP; type: cell-based; conditions: 1 μg/mL; cells pretreated 1 hr with CCCP 5 μg/mL; EC, AG100, AG100A versus AG102
T1 construct: strain AG100 is the wild-type strain of E. coli (Wild) also showing normal efflux; endogenous in cells; host or cells: Escherichia coli ATCC11775, AG100 (wild type), AG102 (AcrAB overexpressing), AG100A (acrAB deleted)
Protocol: The inventors also tested compound 053 (1 μg/mL) on the same Escherichia coli strains with varying levels of AcrAB efflux pump expression. The protocol was slightly modified to introduce a pre-treatment step with Carbonyl Cyanide m-Chlorophenylhydrazone (CCCP). CCCP is a chemical inhibitor of oxidative phosphorylation. It interferes with the transmembrane electrochemical gradient and proton-motive force, and consequently reduces ATP production. The effect of CCCP is to reduce the efficiency of efflux pumps, making it easier to perceive differences in staining between different strains.
The experimental protocol is the same as that described in the examples, with the difference that cells are treated for 1 hr with CCCP (5 μg/mL) in phosphate buffer (PPB). After CCP treatment, the whole experiment is run in PPB instead of MH-II broth from step 4 onwards.

NorA efflux pump [3] = assay: Fluorescence reading by flow cytometry of treated bacteria; type: cell-based, Staphylococcus aureus
Excerpt: The inventors also carried out a fluorescence reading by flow cytometry in order to validate the results previously obtained by spectrofluorimetry. Advantageously, flow cytometry considers only the fluorescence within the cell and not surrounding it, thus enabling direct assessment of the concentration of compound 053 within the cell without the need for rinsing.
(§1) The results are consistent with those obtained previously. […] The inventors also tested the impact that a fixing agent such as 1% w/v paraformaldehyde (PFA) or 70% cold ethanol might have on cells treated with compound 053.

PatA-PatB transporter = assay: Bacterial staining (pellet colour) test on PatA-PatB transporter mutants; type: cell-based, Streptococcus pneumoniae; conditions: 1 μg/mL
Protocol: (§2) Bacterial staining: Bacteria in exponential growth phase are incubated for 15 min in the presence of compound 053. The bacteria are then washed twice in phosphate buffer and centrifuged, with the pellets observed with the naked eye.
(§3) The following protocol was followed: • 1. Grow bacteria on a freshly prepared Muller Hilton-II (MH-II) agar plate. Incubate the Petri dish overnight at 37° C. (Note: Incubation temperature and growth time depend on the bacteria used in the experiment). • 2. The next morning, pick one or two colonies from the overnight plate and inoculate them in an Erlenmeyer flask containing 20 mL MH-II broth. • 3. Incubate the Erlenmeyer on an orbital shaker at 37° C. and 160 rpm for 3-4 hrs. Note: This step allows us to obtain cells in exponential phase, so we need to consider the doubling time of the bacteria used. • 4. After incubation, transfer the cells to a centrifuge tube and centrifuge at 4500 rpm for 10 minutes. Discard supernatant. Add fresh MH-II broth to the centrifuge tube and adjust the optical density of the cells to 0.5. • 5. Transfer an aliquot (5 mL) of cells with adjusted optical density to a new centrifuge tube (50 mL). Add 3.75 μL of compound 053 stock solution (1000 μg/mL) to this tube. Cap the tubes and shake thoroughly to mix the compound. Then keep the centrifuge tube on the table for 15 minutes at room temperature. Note: It is preferable to have a larger surface area to facilitate agitation. […] After 15 minutes contact time, centrifuge the tubes for 10-15 minutes at 4500 rpm to obtain cell pellets and discard supernatant. Using 5 mL of phosphate- or potassium phosphate-buffered saline (PBS, pH7), wash the cell pellets thoroughly (PBS, pH7), repeating this operation twice. Note: Pipette several times with a 5 mL or 1 mL pipette during washing. Make sure there are no lumps during pipetting. The purpose of washing is to remove excess dye from the cell surface. • 7. The color variation in the cells is visible to the naked eye on the cell pellet after the two washes. • a. […]

NorA efflux pump [4] = assay: Fluorescence measurement (spectrofluorimetry, excitation 530 nm) of treated bacteria; type: cell-based, Staphylococcus aureus
Protocol: (§4) Bacterial strains: The inventors used the following strains of Staphylococcus aureus: • CIP 76.25, a reference strain producing a basal level of NorA, • SA1199, a reference strain producing a basal level of NorA, • SA 1199B, an overproducer of the NorA pump, and • SA K1758 with the NorA gene deleted, (Kaatz et al., 2003, Antimicrob Agents Chemother. 2003 February; 47(2): 719-26).
(§5) Fluorescence measurement: Bacteria in exponential growth phase are incubated for 15 min in the presence of compound 053. The optical density at 600 nm is then adjusted to 0.5 and 50 μL is transferred to a black microtiter plate. Fluorescence is read in a Tecan M200 microplate reader.

NorA efflux pump [5] = assay: Bacterial staining (pellet colour) test for NorA efflux pump activity; type: cell-based, Staphylococcus aureus; conditions: 0.75 μg/mL, 15 min
Protocol: as §4, §2
as §3, with “agitation. The final concentration of 053 used in the experiment is 0.75 μg/mL.” for “agitation.”, “supernatant.” for “supernatant. Using 5 mL of phosphate- or potassium phosphate-buffered saline (PBS, pH7), wash the cell pellets thoroughly (PBS, pH7), repeating this operation twice. Note: Pipette several times with a 5 mL or 1 mL pipette during washing. Make sure there are no lumps during pipetting. The purpose of washing is to remove excess dye from the cell surface. • 7. The color variation in the cells is visible to the naked eye on the cell pellet after the two washes. • a.”

NorA efflux pump [6] = assay: Relative fluorescence intensity of treated strains fixed with PFA or ethanol; type: cell-based, Staphylococcus aureus; conditions: fixing agent 1% w/v PFA or 70% cold ethanol; CIP 76.25, SA, SA1199B, SA K1758
Excerpt: as §1

BmrA efflux pump [7] = assay: Bacterial staining (pellet colour) test on BmrA efflux pump mutants; type: cell-based, Bacillus subtilis; conditions: BmrAΔ (BmrA deleted); 0.75 μg/mL
Protocol: as §2
as §3, with “agitation. The final concentration of 053 used in the experiment is 0.75 μg/mL.” for “agitation.”

BmrA efflux pump [8] = target: T2, BmrA efflux pump (Bacillus subtilis, UniProt O06967); assay: as above; type: cell-based; conditions: 0.75 μg/mL
T2 construct: endogenous in cells; host or cells: Bacillus subtilis 168 (DSM 402), BmrA+++ overproducer, BmrA deletion strain
Protocol: as §2
as §3, with “agitation. The final concentration of 053 used in the experiment is 0.75 μg/mL.” for “agitation.”

BmrA efflux pump [9] = assay: Fluorescence measurement (spectrofluorimetry) on BmrA efflux pump mutants; type: cell-based, Bacillus subtilis; conditions: pump-free mutant (BmrAΔ)
Protocol: as §5
(§6) Bacterial strains: The inventors used • the reference strain Bacillus subtilis 168 (DSM 402) producing a basal level of BmrA, • Bacillus subtilis BmrA+++ overproducing the BmrA pump and • Bacillus subtilis BmrA Δ with the BmrA gene deleted. • (see Steinfels E et al. Biochemistry 43:7491-7502 and Krügel Het al. FEMS Microbiol Lett. 2010 December; 313(2): 155-63).
(§7) The protocols used are identical to those used in example 2-1.

BmrA efflux pump [10] = target: T2, BmrA efflux pump; assay: as above; type: cell-based
Protocol: as §5, §6, §7

[11] = strain AG100 (wild-type), normal efflux
[12] = strain AG102 (AcrAB overexpression)
[13] = strain EC (ATCC11775), normal efflux
[14] = strain SA 1199B (NorA overproducer)

T2 sequence (O06967 whole entry): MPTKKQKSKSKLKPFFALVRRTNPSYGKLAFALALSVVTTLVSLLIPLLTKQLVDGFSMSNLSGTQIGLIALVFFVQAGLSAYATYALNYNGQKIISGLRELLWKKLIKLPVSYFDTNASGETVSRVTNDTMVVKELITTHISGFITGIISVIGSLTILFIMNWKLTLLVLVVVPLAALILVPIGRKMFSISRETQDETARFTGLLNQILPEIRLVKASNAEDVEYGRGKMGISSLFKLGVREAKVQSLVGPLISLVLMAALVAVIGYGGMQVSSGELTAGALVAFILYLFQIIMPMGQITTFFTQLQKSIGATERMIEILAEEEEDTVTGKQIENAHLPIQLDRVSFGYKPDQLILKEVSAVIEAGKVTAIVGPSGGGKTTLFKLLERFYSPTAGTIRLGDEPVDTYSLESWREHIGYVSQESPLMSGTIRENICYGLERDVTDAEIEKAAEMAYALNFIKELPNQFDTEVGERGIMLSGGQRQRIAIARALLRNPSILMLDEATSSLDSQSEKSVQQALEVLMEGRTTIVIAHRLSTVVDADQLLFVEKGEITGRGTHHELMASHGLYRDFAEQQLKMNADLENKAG
T1 sequence (P0AE06 25-397): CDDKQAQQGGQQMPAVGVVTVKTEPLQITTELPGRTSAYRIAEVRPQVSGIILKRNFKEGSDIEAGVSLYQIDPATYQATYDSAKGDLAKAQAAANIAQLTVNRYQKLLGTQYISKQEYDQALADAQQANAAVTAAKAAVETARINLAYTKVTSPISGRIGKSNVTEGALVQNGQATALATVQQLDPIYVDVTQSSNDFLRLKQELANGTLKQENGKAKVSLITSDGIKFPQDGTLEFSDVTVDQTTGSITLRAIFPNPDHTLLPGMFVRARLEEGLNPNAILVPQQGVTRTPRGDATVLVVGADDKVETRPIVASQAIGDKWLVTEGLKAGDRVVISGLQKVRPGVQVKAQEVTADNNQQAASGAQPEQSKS
T1 sequence (P02930 23-493, further chain): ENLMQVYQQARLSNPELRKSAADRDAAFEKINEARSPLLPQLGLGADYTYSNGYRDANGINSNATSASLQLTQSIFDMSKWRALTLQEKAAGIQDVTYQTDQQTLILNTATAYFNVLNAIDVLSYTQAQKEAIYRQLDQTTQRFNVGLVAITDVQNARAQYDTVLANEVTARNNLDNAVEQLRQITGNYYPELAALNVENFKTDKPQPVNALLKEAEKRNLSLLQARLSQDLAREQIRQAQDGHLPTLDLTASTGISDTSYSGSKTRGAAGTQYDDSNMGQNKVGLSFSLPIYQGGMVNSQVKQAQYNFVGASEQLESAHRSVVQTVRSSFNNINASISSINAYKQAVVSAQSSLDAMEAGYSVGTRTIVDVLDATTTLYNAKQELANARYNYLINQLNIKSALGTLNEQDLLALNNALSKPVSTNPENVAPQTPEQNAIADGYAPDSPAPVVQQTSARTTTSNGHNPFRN
T1 sequence (P31224 whole entry): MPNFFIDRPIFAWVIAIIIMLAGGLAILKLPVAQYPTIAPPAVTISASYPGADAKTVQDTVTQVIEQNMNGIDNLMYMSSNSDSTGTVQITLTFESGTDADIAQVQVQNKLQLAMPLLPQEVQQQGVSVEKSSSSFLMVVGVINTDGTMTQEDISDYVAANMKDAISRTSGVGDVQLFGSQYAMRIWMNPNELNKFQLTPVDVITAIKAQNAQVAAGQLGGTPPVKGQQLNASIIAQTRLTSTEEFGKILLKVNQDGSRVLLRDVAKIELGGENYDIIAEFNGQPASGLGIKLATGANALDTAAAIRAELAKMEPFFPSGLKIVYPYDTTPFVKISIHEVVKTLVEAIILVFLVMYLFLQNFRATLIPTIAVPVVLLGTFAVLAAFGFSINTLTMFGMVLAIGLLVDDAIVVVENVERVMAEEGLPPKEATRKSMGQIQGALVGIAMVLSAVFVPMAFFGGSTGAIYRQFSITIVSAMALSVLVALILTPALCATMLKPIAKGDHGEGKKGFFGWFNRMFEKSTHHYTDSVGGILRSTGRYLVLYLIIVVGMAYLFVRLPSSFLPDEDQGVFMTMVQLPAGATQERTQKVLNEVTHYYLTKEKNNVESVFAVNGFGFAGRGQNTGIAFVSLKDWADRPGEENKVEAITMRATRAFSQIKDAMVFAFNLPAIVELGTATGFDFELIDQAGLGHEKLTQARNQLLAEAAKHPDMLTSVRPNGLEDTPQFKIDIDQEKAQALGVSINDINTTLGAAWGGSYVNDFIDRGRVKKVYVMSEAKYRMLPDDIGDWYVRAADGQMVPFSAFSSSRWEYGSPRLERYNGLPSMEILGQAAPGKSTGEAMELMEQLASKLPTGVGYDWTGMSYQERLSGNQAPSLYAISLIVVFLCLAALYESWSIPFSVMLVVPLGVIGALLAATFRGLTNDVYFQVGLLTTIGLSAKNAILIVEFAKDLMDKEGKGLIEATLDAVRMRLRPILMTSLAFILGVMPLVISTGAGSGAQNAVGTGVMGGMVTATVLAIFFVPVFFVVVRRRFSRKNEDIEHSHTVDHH

CCCCCCCC[n+]1c2cc(NCCCC)ccc2nc2cc(NCCOC)c(N)cc21 [compound 392]
staining of bacteria (pellet colour) (AcrAB efflux pump [1]; [11]): very pale pink
staining of bacteria (pellet colour) (AcrAB efflux pump [1]; strain AG100A (acrAB deleted)): dark pink stain
staining of bacteria (pellet colour) (AcrAB efflux pump [1]; [12]): unstained
staining of bacteria (pellet colour) (AcrAB efflux pump [1]; [13]): very pale pink

CCCCNc1ccc2nc3cc(NCCOC)c(N)cc3[n+](CCC)c2c1 [compound 053]
visual distinction of strains by pellet staining (AcrAB efflux pump [2]): visually possible to distinguish
accumulation in cells (fluorescence intensity by flow cytometry) (NorA efflux pump [3]; NorA-overexpressing strain SA1199B): accumulated very little
accumulation in cells (fluorescence intensity by flow cytometry) (NorA efflux pump [3]; norA-deleted strain SA K1758): accumulated heavily
accumulation in cells (fluorescence intensity by flow cytometry) (NorA efflux pump [3]; reference strain SA): accumulated moderately
accumulation in cells (fluorescence intensity by flow cytometry) (NorA efflux pump [3]; wild-type strain CIP 76.25): accumulated moderately
colour of bacterial pellet (PatA-PatB transporter; DEL strain (PatA-PatB deleted)): dark pink
colour of bacterial pellet (PatA-PatB transporter; OVP strain (overexpressing PatA-PatB)): white
colour of bacterial pellet (PatA-PatB transporter; WT strain (basal PatA-PatB)): dark pink
fluorescence of treated bacteria (NorA efflux pump [4]; strain CIP 76.25 (low NorA level)): intermediate levels of fluorescence
fluorescence of treated bacteria (NorA efflux pump [4]; strain SA 1199 (low NorA level)): intermediate levels of fluorescence
fluorescence of treated bacteria (NorA efflux pump [4]; [14]): almost nil
fluorescence of treated bacteria (NorA efflux pump [4]; strain SA K1758 (NorA pump-free mutant)): high fluorescence
colour of bacterial pellet (NorA efflux pump [5]; strain CIP 76.25 (reference, basal NorA)): Intermediate colors; also recorded: intermediate pale pink
colour of bacterial pellet (NorA efflux pump [5]; [14]): No coloration; also recorded: white/off-white
colour of bacterial pellet (NorA efflux pump [5]; strain SA K1758 (NorA deleted)): bright dark pink
efflux differential between strains after fixation (NorA efflux pump [6]): efflux differential between the different strains remains visible
colour of bacterial pellet (BmrA efflux pump [7]): dark pink
colour of bacterial pellet (BmrA efflux pump [8]; BmrA+++ (overexpressing BmrA)): white; also recorded: No coloration
colour of bacterial pellet (BmrA efflux pump [8]; wild-type B. subtilis 168 (DSM 402)): Intermediate pale pink
fluorescence of treated bacteria (BmrA efflux pump [9]): very high
fluorescence of treated bacteria (BmrA efflux pump [10]; overproducing strain (BmrA+++)): almost nil
fluorescence of treated bacteria (BmrA efflux pump [10]; wild-type strain (DSM 402)): intermediate levels of fluorescence

CCCCNc1ccc2nc3cc(NCCC)c(N)cc3[n+](CCCC)c2c1 [compound 29]
staining of bacteria (pellet colour) (AcrAB efflux pump [1]; [11]): very pale pink
staining of bacteria (pellet colour) (AcrAB efflux pump [1]; strain AG100A (acrAB deleted)): dark pink stain
staining of bacteria (pellet colour) (AcrAB efflux pump [1]; [12]): unstained
staining of bacteria (pellet colour) (AcrAB efflux pump [1]; [13]): very pale pink
